From BindingDB's records for doi:10.1021/jm0706867 (St. Jude Research Hospital, 2007) come the findings set out here.

For orientation: Ki means the equilibrium dissociation constant of an inhibitor or competing ligand from its target.

In the test the target is CES2 (Homo sapiens, UniProt O00748). In words: Enzyme Inhibition Assay. As to conditions: pH 7.4; 25 °C. On the procedure:
CE inhibition was determined using a spectrophotometric multiwell plate assay with o-NPA as a substrate. The rate of change in absorbance at 420 nm was measured at 15 sec intervals for 5 min and compared to wells containing no inhibitor. […] Further analysis of inhibitors was performed in condition that inhibitor concentrations ranged from 1 pM to 100 uM. Data were fitted to the equation. Examination of curve fits to identify the best model for enzyme inhibition. Ki values were then calculated from the equation predicted by Prism to be the best fit for the experimental data.

Sequence of CES2 (O00748 whole entry, looked up): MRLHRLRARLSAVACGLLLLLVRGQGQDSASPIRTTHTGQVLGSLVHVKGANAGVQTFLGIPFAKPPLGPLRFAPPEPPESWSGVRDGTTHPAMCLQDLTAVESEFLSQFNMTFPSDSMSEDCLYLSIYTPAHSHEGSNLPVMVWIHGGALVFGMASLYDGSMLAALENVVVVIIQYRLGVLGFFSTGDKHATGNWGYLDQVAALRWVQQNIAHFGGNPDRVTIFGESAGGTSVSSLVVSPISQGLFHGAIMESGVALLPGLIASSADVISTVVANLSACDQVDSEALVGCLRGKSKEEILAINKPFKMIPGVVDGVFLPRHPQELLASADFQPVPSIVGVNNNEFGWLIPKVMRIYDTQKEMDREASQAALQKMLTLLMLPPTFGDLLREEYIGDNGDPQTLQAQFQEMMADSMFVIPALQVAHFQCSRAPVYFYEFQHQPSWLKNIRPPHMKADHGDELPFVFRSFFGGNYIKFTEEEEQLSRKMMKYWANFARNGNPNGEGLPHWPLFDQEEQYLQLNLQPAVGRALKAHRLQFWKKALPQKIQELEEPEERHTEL

Take `COc1ccccc1C(=O)C(=O)c1ccccc1OC` [1,2-bis(2-methoxyphenyl)ethane-1,2-dione]: the inhibition constant Ki is greater than 100 µM. On to `O=C1C(=O)c2cccc3c2N(CCC3)C1=O` [1-azatricyclo[7.3.1.0^{5,13}]trideca-5,7,9(13)-triene-2,3,4-trione], for which the Ki was greater than 100 µM. `O=C1C(=O)c2cccnc2-c2ncccc21` [5,6-dihydro-1=10-phenantroline-5,6-dione] displayed a Ki greater than 100 µM.
